From patent US10322088B2, “Sustained-release composition, method for fabricating, and use thereof” (NATIONAL TSING HUA UNIVERSITY, priority 2017, dated 2019)

Experiments:
[1] = tested on: human umbilical vein endothelial cells; experiment: Tubular structure formation test on Matrigel; assay type: cell-based; conditions: 25 mM D-glucose
Excerpt: The human umbilical vein endothelial cells will migrate, arrange and form a tubular network structure without additional growth factors and the participation of other kinds of cells, thus the wound-healing efficiency is affected by the maintenance of the tubular structure of the cells as time goes on. Therefore, the ability to enhance cell migration and facilitate the angiogenesis of the sustained-release composition of the present disclosure is confirmed by the tubular structure formation test of the human umbilical vein endothelial cells. The specific experimental method is described below. First, 200 μL of the growth factor-reduced matrix Matrigel is added to each well of a 24-well plate respectively and then placed into the 37° C. incubator. After the growth factor-reduced matrix Matrigel is heated and become colloid, 2.5×10^4 of the human umbilical vein endothelial cells are seeded in each well of the aforementioned 24-well plate and then 200 μL of the medium (containing 25 mM D-glucose) is added to the wells respectively. […] Next, the tubular structure of each experimental group is observed via an inverted microscope at the time points of 6 hours, 12 hours, 24 hours and 48 hours, and the branching point number of each experimental group is calculated.

p38 protein = experiment: Signaling molecule activation test, p38 phosphorylation by ELISA; assay type: cell-based, human; conditions: HUVEC
Protocol: (§1) In the aforementioned description, the exogenous hydrogen sulfide can activate the signaling molecules related to the proliferation and the migration of the endothelial cells, such as ERK1/2 protein and p38 protein, so that the angiogenesis of the cells is enhanced. Thus, the ability to activate the signaling molecule of the sustained-release composition of the present disclosure is further estimated in this experiment. First, the human umbilical vein endothelial cells are seeded in a 6-well plate in a density of 10^5 cells per well. After incubating for 24 hours, the 1% FBS mediums containing the formula of the experimental group 1 or the experimental group 3 (all of them contain 25 mM D-glucose) respectively is added to each well of a 6-wells-plate. Finally, the cells are collected at specific time points and the phosphorylation level of p38 protein and ERK1/2 are quantified by the enzyme-linked immunosorbent assay (ELISA).

ERK1/2 protein = experiment: Signaling molecule activation test, ERK1/2 phosphorylation by ELISA; assay type: cell-based, human; conditions: HUVEC
Protocol: as §1

db/db mouse = experiment: In vivo wound healing test, full-thickness back skin wounds; conditions: after treating for 18 days, dressing replaced every 48 hours
Excerpt: According to the aforementioned results, the sustained-release composition of the present disclosure does have the ability to enhance the cell migration, the cell proliferation and the angiogenesis, and the ability to facilitate the wound healing of the sustained-release composition of the present disclosure is further confirmed by the following in vivo wound healing test. The animal model established method and the animal experiment procedures of the in vivo wound healing test in this experiment are complied with the “Laboratory Animal Care and Use Guide” published by the Council of Agriculture, Taiwan. The diabetic animal model used in this experiment is an 8-week-old BKS.Cg-Lepr^db/Lepr^db/JNarl mouse (also known as db/db mouse).
In the in vivo wound healing test, four symmetrically distributed rounded full-thickness wounds are created on the back skin of each mouse by the tissue sampler after the mice are anesthetized, wherein the diameter of each wound is 0.5 centimeter and the volume of each wound is 50 μL. The four wounds are applied with different treatments respectively and the dressing is replaced every 48 hours. […] The area changes of each wound at different time points are further analyzed by the image analysis software.

For S [experimental group 1, sodium hydrosulfide], the tubular structure ([1]; after incubating for 6 hours) was “can be observed”, the “tubular structure disappeared rate” value ([1]; up to 48 hours) was “reduced” and the “phosphorylation level of the p38 protein” value (p38 protein; after 24 hours and 48 hours) was “decreased”. For the same molecule, the “phosphorylation level of the p38 protein” value (p38 protein; first hour) was “significantly increased”, the “phosphorylation level of the ERK1/2 protein” value (ERK1/2 protein; after 24 hours and 48 hours) was “decreased” and the “phosphorylation level of the ERK1/2 protein” value (ERK1/2 protein; first hour) was “significantly increased”. For the same molecule, the “appearance of the wound” value (db/db mouse) was “unobvious”.
